pIC50: −log10 of the molar value.
Columns and labels:
[1] = biological target: epidermal growth factor (EGF) receptor kinase (Homo sapiens, UniProt P00533); experiment: EGF receptor kinase inhibition; type: biochemical; conditions: read-out: IC50 for epidermal growth factor (EGF) receptor kinase
[2] = biological target: erbB‐2 (Homo sapiens, UniProt P04626); experiment: erbB-2 tyrosine kinase inhibition; type: biochemical; conditions: read-out: IC50 for erbB‐2
[3] = biological target: p43^v‐abl; experiment: p43v-abl tyrosine kinase inhibition; type: biochemical; conditions: read-out: IC50 for p43^v‐abl
[4] = biological target: insulin receptor kinase (Homo sapiens, UniProt P06213); experiment: insulin receptor kinase inhibition; type: biochemical; conditions: read-out: IC50 for insulin receptor kinase
Chain of insulin receptor kinase (P06213 28-1382): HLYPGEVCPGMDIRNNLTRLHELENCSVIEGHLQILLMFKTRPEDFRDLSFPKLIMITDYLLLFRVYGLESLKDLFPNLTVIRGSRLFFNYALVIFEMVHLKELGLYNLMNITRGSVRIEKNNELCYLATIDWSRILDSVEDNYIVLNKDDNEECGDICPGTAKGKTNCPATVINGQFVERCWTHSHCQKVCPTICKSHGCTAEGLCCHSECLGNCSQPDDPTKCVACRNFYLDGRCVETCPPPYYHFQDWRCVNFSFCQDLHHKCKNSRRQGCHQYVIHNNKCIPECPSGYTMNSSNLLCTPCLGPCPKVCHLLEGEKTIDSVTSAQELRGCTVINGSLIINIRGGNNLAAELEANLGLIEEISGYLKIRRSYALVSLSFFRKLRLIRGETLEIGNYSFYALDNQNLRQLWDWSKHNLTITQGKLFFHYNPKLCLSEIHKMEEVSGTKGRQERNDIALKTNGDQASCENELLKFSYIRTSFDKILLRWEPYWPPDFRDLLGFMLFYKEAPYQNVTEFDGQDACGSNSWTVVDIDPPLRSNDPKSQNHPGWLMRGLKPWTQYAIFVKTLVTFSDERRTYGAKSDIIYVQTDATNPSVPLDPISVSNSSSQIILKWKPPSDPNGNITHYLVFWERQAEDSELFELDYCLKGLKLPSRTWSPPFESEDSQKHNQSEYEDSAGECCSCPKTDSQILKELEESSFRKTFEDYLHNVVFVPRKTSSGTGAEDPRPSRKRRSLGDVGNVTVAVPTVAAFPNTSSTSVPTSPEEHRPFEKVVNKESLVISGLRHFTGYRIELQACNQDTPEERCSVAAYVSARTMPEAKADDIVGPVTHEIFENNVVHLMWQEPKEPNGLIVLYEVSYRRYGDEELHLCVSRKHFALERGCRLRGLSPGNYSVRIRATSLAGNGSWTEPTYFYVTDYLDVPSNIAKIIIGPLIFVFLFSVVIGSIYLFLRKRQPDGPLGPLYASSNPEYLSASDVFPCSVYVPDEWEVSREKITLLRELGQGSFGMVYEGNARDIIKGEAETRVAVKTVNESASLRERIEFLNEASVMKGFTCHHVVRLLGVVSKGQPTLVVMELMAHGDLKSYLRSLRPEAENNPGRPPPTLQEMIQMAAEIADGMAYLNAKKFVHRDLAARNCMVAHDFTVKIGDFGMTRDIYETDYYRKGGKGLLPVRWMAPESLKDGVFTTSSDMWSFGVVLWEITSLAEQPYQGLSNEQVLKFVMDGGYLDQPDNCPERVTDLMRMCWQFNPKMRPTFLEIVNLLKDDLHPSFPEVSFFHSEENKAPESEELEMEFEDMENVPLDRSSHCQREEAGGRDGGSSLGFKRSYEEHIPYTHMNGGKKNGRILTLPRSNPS

[5] = biological target: p60^c‐src (Homo sapiens, UniProt P12931); experiment: p60c-src tyrosine kinase inhibition; type: biochemical; conditions: read-out: IC50 for p60^c‐src
[6] = biological target: protein kinase C; experiment: protein kinase C inhibition; type: biochemical; conditions: read-out: IC50 for protein kinase C; serine/threonine kinase
[7] = biological target: Cdc2 kinase (Homo sapiens, UniProt P06493); experiment: Cdc2 kinase inhibition; type: biochemical; conditions: 20 μM
[8] = system: casein kinase I; experiment: casein kinase I inhibition; type: biochemical; conditions: 20 μM
[9] = system: casein kinase II; experiment: casein kinase II inhibition; type: biochemical; conditions: 20 μM
[10] = system: cAMP‐dependent protein kinase; experiment: cAMP-dependent protein kinase inhibition; type: biochemical; conditions: 20 μM
[11] = biological target: T1, EGF receptor (Homo sapiens, UniProt P00533); experiment: kinetic study of kinase inhibition; type: biochemical
T1 sequence (P00533 25-1210): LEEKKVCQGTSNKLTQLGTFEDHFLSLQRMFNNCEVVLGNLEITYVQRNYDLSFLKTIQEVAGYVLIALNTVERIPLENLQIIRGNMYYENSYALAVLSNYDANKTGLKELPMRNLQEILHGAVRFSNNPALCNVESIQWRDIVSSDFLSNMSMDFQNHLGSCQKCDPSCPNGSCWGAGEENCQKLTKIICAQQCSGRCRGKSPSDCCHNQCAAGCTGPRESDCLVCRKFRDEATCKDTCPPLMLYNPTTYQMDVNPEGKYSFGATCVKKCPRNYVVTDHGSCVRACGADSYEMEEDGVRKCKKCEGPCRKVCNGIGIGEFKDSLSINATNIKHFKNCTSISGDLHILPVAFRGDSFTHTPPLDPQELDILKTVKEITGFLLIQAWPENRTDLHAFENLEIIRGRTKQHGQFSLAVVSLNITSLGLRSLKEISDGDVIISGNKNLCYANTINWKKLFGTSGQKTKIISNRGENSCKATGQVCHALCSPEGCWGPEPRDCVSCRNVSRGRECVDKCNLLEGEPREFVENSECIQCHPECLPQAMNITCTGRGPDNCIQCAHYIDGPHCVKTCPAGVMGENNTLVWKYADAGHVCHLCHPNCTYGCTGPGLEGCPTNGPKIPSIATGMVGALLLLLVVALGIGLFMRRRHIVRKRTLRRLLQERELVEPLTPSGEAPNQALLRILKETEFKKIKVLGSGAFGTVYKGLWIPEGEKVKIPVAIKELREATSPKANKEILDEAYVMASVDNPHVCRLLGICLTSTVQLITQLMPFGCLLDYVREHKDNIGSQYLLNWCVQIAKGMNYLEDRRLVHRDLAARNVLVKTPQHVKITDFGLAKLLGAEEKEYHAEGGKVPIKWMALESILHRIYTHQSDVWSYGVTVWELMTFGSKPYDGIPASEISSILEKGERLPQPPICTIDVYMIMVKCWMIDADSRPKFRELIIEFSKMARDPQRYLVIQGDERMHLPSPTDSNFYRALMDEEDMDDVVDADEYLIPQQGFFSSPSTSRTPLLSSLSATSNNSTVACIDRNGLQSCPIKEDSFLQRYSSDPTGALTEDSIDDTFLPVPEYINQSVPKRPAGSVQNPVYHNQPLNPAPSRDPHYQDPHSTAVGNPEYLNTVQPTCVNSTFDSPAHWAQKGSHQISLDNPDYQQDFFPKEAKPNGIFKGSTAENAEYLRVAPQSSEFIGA

[12] = biological target: T1, EGF receptor; experiment: autophosphorylation of EGF receptor in A431 cells; type: cell-based

Chain of epidermal growth factor (EGF) receptor kinase (P00533 25-1210): as above
Chain of erbB‐2 (P04626 23-1255, species assumed): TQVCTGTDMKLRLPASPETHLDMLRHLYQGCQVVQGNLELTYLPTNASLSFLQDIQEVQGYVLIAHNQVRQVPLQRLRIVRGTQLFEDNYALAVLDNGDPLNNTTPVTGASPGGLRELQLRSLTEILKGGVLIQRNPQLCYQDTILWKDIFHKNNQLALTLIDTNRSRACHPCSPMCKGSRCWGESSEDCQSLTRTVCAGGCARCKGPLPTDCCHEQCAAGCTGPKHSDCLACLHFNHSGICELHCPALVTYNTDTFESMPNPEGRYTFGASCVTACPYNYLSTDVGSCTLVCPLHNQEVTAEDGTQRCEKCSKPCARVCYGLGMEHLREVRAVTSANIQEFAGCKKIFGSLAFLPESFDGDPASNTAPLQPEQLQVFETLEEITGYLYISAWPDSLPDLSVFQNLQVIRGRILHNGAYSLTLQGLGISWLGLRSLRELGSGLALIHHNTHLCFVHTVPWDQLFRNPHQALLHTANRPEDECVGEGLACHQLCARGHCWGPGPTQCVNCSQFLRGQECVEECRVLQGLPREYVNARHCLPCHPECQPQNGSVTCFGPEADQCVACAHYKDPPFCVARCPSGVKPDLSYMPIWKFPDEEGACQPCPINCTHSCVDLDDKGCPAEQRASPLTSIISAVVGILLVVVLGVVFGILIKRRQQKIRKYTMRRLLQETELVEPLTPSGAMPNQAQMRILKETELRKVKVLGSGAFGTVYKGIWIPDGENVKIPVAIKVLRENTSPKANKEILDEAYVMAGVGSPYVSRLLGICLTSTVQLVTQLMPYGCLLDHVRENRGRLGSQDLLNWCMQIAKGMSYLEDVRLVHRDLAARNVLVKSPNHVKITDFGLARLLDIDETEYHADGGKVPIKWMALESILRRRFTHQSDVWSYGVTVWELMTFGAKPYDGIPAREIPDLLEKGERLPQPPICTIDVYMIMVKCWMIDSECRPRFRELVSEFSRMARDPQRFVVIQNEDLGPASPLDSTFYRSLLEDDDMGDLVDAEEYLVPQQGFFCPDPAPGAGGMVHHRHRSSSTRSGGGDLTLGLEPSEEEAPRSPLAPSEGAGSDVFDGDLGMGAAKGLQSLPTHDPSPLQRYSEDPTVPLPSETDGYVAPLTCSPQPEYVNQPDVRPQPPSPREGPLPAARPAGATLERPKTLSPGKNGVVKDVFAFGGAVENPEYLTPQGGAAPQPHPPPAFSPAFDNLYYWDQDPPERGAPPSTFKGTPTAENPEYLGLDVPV

O=C1OC(c2ccc(O)c(O)c2)=C/C1=C\c1ccc(O)c(O)c1 [BE‐23372M]
pIC50 [1]: 7.52
pIC50 [2]: 6.38
pIC50 [3]: 6.00
pIC50 [4]: 5.48
pIC50 [5]: 5.35
pIC50 [6]: 5.39
inhibition of Cdc2 kinase [7]: not inhibited
inhibition of casein kinase I [8]: not inhibited
inhibition of casein kinase II [9]: not inhibited
inhibition of cAMP‐dependent protein kinase [10]: not inhibited
mode of inhibition with respect to ATP ([11]; ATP): competitive
mode of inhibition with respect to the substrate peptide ([11]; substrate peptide): competitive
Autophosphorylation of EGP receptor in A431 cells [12]: inhibited
